BigSolDB 2.1

Cc1c([N+](=O)[O-])c(C)c([N+](=O)[O-])c(C(C)(C)C)c1[N+](=O)[O-]
solubility (mole fraction)
Conditions | in DMAc | in THF | in cyclohexane | in ethanol | in ethyl acetate | in isopropanol | in methanol | in n-butanol | in n-heptane | in n-hexane
278.15 K | 0.0918 | 0.0786 | 0.00467 | 0.00168 | 0.0953 | 0.00128 | 0.00185 | 0.00245 | 0.00262 | 0.00225
283.15 K | 0.112 | 0.0889 | 0.00588 | 0.00207 | 0.115 | 0.00165 | 0.00234 | 0.00308 | 0.00321 | 0.00284
288.15 K | 0.134 | 0.1 | 0.00739 | 0.00254 | 0.136 | 0.00211 | 0.00295 | 0.00374 | 0.00402 | 0.00359
293.15 K | 0.156 | 0.112 | 0.00925 | 0.00311 | 0.158 | 0.00269 | 0.00369 | 0.0045 | 0.00496 | 0.00437
298.15 K | 0.179 | 0.126 | 0.0116 | 0.00378 | 0.182 | 0.00343 | 0.00459 | 0.00553 | 0.00609 | 0.00557
303.15 K | 0.205 | 0.139 | 0.0145 | 0.00458 | 0.207 | 0.00437 | 0.00569 | 0.00666 | 0.00752 | 0.00685
308.15 K | 0.232 | 0.156 | 0.0182 | 0.00552 | 0.233 | 0.00557 | 0.00704 | 0.00806 | 0.00931 | 0.00842
313.15 K | 0.263 | 0.173 | 0.0229 | 0.00663 | 0.262 | 0.00713 | 0.00868 | 0.00974 | 0.0114 | 0.0104
